In ChEMBL document CHEMBL1139551, “2,3-Ethylene- and 2,3-trimethylene-bridged analogues of the group III metabotropic glutamate receptor ligand 2-amino-4-phosphonobutanoic acid” (Bioorg Med Chem Lett, 2005):

What follows are compounds tested against T1, Metabotropic glutamate receptor 4 (Homo sapiens, UniProt Q14833) (assay: Agonistic activity towards group III Metabotropic glutamate receptor stably expressed in AV12 cells when tested up to 200 uM; NS means no significant activity).
T1 sequence (Q14833 whole entry): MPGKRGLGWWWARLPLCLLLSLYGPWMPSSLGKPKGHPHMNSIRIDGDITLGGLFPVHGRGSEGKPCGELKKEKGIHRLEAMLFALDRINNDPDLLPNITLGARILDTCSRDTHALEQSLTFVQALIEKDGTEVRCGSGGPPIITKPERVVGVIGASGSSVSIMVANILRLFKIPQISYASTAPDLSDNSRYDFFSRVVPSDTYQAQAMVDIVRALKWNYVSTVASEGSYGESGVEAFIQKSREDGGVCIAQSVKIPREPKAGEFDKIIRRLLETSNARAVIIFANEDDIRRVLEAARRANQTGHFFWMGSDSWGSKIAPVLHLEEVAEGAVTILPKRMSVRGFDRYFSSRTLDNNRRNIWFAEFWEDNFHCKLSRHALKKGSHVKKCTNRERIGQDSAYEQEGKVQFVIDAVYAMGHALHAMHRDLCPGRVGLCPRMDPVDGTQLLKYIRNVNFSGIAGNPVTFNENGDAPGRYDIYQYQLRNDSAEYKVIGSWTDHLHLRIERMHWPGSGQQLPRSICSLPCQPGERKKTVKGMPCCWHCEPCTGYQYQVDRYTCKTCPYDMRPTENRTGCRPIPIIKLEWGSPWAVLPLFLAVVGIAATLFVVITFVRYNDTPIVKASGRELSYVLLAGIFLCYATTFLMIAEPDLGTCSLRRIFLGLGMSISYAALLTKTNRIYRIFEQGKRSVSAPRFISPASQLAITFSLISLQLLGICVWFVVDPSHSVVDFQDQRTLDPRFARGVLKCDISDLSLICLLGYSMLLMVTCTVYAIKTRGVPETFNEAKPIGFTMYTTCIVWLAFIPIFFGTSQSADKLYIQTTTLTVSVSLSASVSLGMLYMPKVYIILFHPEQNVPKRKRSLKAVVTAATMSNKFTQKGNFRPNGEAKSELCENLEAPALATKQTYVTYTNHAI
Type: functional, cell-based
For `NC1(C(=O)O)CCC1CP(=O)(O)O` (stereo in doubt; 5), the Activity was “No significant activity”.
With `NC1(C(=O)O)CCC1CP(=O)(O)O` (stereo in doubt; 6) the Activity was “No significant activity”.
`NC1(C(=O)O)CCCC1CP(=O)(O)O` (stereo in doubt; 7) was tested, and the Activity was “No significant activity”.
`NC1(C(=O)O)CCCC1CP(=O)(O)O` (stereo in doubt; 8) was tested, and the Activity was “No significant activity”.

What follows are compounds tested against T1, Metabotropic glutamate receptor 4 (assay: Effective concentration which exhibit agonistic activity at metabotropic glutamate 4 receptor stably expressed in AV12 cells).
Type: functional, cell-based
In the case of `NC1(C(=O)O)CC1CP(=O)(O)O` (stereo in doubt; 3), the EC50 is reported as 7.9 µM.
`NC1(C(=O)O)CC1CP(=O)(O)O` (stereo in doubt; 4) was tested, and the EC50 was 0.58 µM.
